Results: PMC8116058, “De novo macrocyclic peptides dissect energy coupling of a heterodimeric ABC transporter by multimode allosteric inhibition” (eLife, 2021)
Positions of bridges follow the written chain, without caps; N, C: chain ends. Non-standard residues stand in square brackets, D forms with d. Residues, ends and D or L forms follow the SMILES beside them. *: point of attachment. 5FAM = O=C1OC2(c3ccc(O)cc3Oc3cc(O)ccc32)c2ccc(C(=O)*)cc21; βAla = NCCC(=O)O

Legend:
[1] = system: TmrAB; experiment: Competition of CP^F binding by substrate peptides (fluorescence anisotropy); parameters: species or system Thermus thermophilus
Excerpt: To elucidate the mechanistic basis for the inhibition of ATP hydrolysis and substrate transport, we investigated the effects of CPs on substrate binding. In the first approach, fluorescent CP^Fs were used as reporters in fluorescence polarization. […] In addition, we examined the impact of CP^Bs on ATP binding to TmrAB by scintillation proximity assays (SPA) (Figure 4C). […] Taken together, CPs are high-affinity allosteric inhibitors of TmrAB that leave ATP binding and substrate interaction largely unaffected, while impairing ATP hydrolysis and substrate translocation across the membrane.
Figure 4. […] (A) CP^Fs binding TmrAB is not affected by substrate peptide binding. […] For competition, C4^ATTO655 peptide (2 µM) or R9LQK peptide (200 µM) were added. (B) Binding of C4F peptide is not affected by CP^Bs. C4F peptides (50 nM) were mixed with TmrAB (4 µM), and fluorescence anisotropy was monitored as described in (A). For competition, C4^ATTO655 (10 µM) or CP^Bs (6 µM) were added. […] TmrAB (0.2 µM) were immobilized on SPA beads and incubated with ATP (3 μM, traced with ^3H-ATP) in the presence and absence of CP^Bs (1 µM each) for 30 min on ice. ATP binding was monitored by SPA. Background values were determined after releasing TmrAB complexes from the beads by adding imidazole (200 mM). The background signal in the absence of CP^Bs was set to 0 cpm. […] As this is an equilibrium experiment, this can be rationalized by the fact that CP13 stabilizes the ATP-bound OF conformer. Figure 4—source data 1. Source data for Figure 4.
To determine equilibrium binding constants, CP^Fs (50 nM) were incubated with increasing concentrations of TmrAB-containing or empty liposomes. To probe the conformational selectivity, CP^Fs (50 nM) were mixed with detergent-solubilized IF TmrAB or OF TmrA^EQB. Before, OF TmrA^EQB was nucleotide-trapped by incubation with ATP (1 mM) and MgCl2 (3 mM) in the absence of CP^Fs for 5 min at 45°C. […] For peptide competition studies, RRYC^fluoresceinKSTEL (C4F, 50 nM) were incubated with detergent-solubilized TmrAB (4 µM), CP^Bs (6 µM), or C4^ATTO655 (10 µM). […] Fluorescence anisotropy was analyzed at λex/em of 485/520 nm using a microplate reader (CLARIOstar, BMG LABTECH). Fluorescence anisotropy was calculated using:(1) r=I||−I⊥/I||+2⋅I⊥ with I||: parallel intensity and I⊥: perpendicular intensity. Binding of CP^Fs were fitted by a one-site binding model (Langmuir 1:1) using:(2) Y=Bmax∙[L]/KD+[L] with Y: binding, Bmax: maximal binding, KD: equilibrium dissociation constant, and [L]: ligand concentration. Data represent mean ± SD from three experiments.

[2] = system: wild-type TmrAB; experiment: Nucleotide occlusion, wild-type TmrAB; format: biochemical, Thermus thermophilus; conditions: 5 min 45°C; for Effect on nucleotide occlusion, wild-type TmrAB: CP^F 4 µM; for Occluded nucleotides, ADP / Occluded nucleotides, ATP: TmrAB 2 µM, CP^F 4 µM or orthovanadate 1 mM, ATP 1 mM traced with [α32P]-ATP, normalized to vanadate-trapped state
Procedure: Figure 5. […] (A, B) CP6^F (A) or CP13^F (B, 50 nM each) were incubated with increasing concentrations of detergent-solubilized inward-facing TmrAB (in the absence of Mg-ATP) or outward-facing TmrA^EQB, which was trapped with Mg-ATP (1 mM) for 5 min at 45°C as described ([Hofmann et al., 2019]; [Stefan et al., 2020]). Immediately after, the fluorescence anisotropy was assayed at λex/em = 485/520 nm. The difference in fluorescence polarization was normalized to free and fully bound CP^F. Data were fitted by a one-site binding model. […] TmrAB (2 µM each) were mixed with CP^Fs (4 µM), ATP (1 mM, traced with [α^32P]-ATP), and MgCl2 (5 mM) for 5 min at 4°C or 45°C. Cold ATP (10 mM) was added, and freely exchangeable nucleotides were removed by rapid gel filtration. Occluded nucleotides were analyzed by thin layer chromatography and autoradiography. Representative radiograms for independent triplicates are shown. (D) Stably occluded nucleotides, [α^32P]-ATP and [α^32P]-ADP, were quantified by autoradiography. Data were normalized to the vanadate-trapped state. In (A, B, D), mean values ± SD (n = 3) are shown. Figure 5—source data 1. Source Data for Figure 5. Figure 5—figure supplement 1. […] (A) CP^Fs (50 nM each) were incubated with increasing concentrations of detergent-solubilized IF TmrAB in the inward-facing (IF) conformation (absence of Mg-ATP) or TmrA^EQB populated in the outward-facing (OF) conformation, which was trapped in the OF conformation by Mg-ATP (1 mM) after 5 min incubation at 45°C. The difference in fluorescence polarization was normalized to unbound (0%) and 100% bound CP^F. Data were fitted by a one-site binding model. Fluorescence anisotropy was recorded at λex/em = 485/520 nm. […] TmrA^EQB (2 µM) were incubated in the absence and presence of CP^Fs (4 µM each), ATP (1 mM, traced with [α^32P]-ATP), and MgCl2 (5 mM) for 5 min at 4°C or 45°C. Cold ATP (10 mM) was added, and free nucleotides were removed by rapid gel filtration. Occluded nucleotides were analyzed by thin layer chromatography and autoradiography. Representative radiograms for independent triplicates are shown. […] Figure 5—figure supplement 1—source data 1.
We also examined the impact of CP^Fs on the IF-to-OF transition of wild-type TmrAB induced by ATP binding through nucleotide occlusion (stable trapping) as the readout. We induced the IF-to-OF switch with radiotraced [α^32P]-ATP for 5 min at 45°C in the presence and absence of CPs and removed unbound nucleotides by rapid gel filtration. Subsequently, the occluded nucleotides were identified and quantified by thin layer chromatography and autoradiography (Figure 5C, D).
Detergent-solubilized TmrAB (2 µM) were incubated with ATP (1 mM) traced with [α^32P]-ATP (Hartmann Analytic), MgCl2 (5 mM), CP^Fs (4 µM), or orthovanadate (1 mM) for 5 min at 45°C. Cold ATP (10 mM) was added, and unbound nucleotides were removed by rapid gel filtration (Bio-Spin columns P-30, Bio-Rad). ATP (10 mM) was added, and samples were spotted onto polyethyleneimine cellulose plates (Merck Millipore). Thin-layer chromatography was performed using 0.75 M KH2PO4 pH 3.4.

[3] = CP^F 50 nM + TmrAB + competitor C4^ATTO655 peptide 2 µM
[4] = CP^F 50 nM + TmrAB + competitor R9LQK peptide 200 µM
[5] = listed as -: CP^F 50 nM before addition of TmrAB
[6] = listed as TmrAB: CP^F 50 nM + TmrAB 0.5-0.7 µM, no competitor

| SMILES | Bound CP^F, fluorescence anisotropy [1, 3] | Bound CP^F, fluorescence anisotropy [1, 4] | Bound CP^F, fluorescence anisotropy [1, 5] | Bound CP^F, fluorescence anisotropy [1, 6] | Effect on nucleotide occlusion, wild-type TmrAB [2] | Occluded nucleotides, ADP [2] | Occluded nucleotides, ATP [2] |
| --- | --- | --- | --- | --- | --- | --- | --- |
| CC(C)C[C@@H]1NC(=O)[C@H](Cc2ccccc2)NC(=O)CNC(=O)[C@H](CO)NC(=O)[C@H](Cc2ccccc2)NC(=O)[C@H](CC(=O)O)NC(=O)[C@@H]2CCCN2C(=O)[C@H]([C@@H](C)O)NC(=O)[C@@H](Cc2ccc(O)cc2)NC(=O)CSC[C@@H](C(=O)NCC(=O)N[C@@H](CO)C(=O)NCCC(=O)NCCC(=O)N[C@@H](CCCNC(=N)N)C(=O)N[C@@H](CCCCNC(=O)c2ccc3c(c2)C(=O)OC32c3ccc(O)cc3Oc3cc(O)ccc32)C(N)=O)NC(=O)[C@H](C)NC(=O)[C@H](CC(N)=O)NC(=O)[C@H](CCCNC(=N)N)NC(=O)[C@H](CC(C)C)NC(=O)[C@H](Cc2ccccc2)NC(=O)[C@H](C)NC1=O [CP12] ({CH2CO}-[dY]TPDFSGFLAFLRNACGS[βAla][βAla]RK(5FAM)-NH2; thioether N-16) | 0.160 | 0.155 | 0.025 | 0.168 | nucleotide occlusion was completely abolished | 3.67% | 7.52% |
| CC(C)[C@@H]1NC(=O)[C@H](Cc2ccccc2)NC(=O)[C@@H]2CCCN2C(=O)[C@H](CC(N)=O)NC(=O)[C@H](Cc2c[nH]c3ccccc23)NC(=O)[C@H](C(C)C)NC(=O)[C@H](Cc2ccc(O)cc2)NC(=O)[C@H](Cc2ccccc2)NC(=O)[C@@H](Cc2ccc(O)cc2)NC(=O)CSC[C@@H](C(=O)NCC(=O)N[C@@H](CO)C(=O)NCCC(=O)NCCC(=O)N[C@@H](CCCNC(=N)N)C(=O)N[C@@H](CCCCNC(=O)c2ccc3c(c2)C(=O)OC32c3ccc(O)cc3Oc3cc(O)ccc32)C(N)=O)NC(=O)[C@H](CCCCN)NC(=O)[C@H](Cc2ccccc2)NC1=O [CP14] ({CH2CO}-[dY]FYVWNPFVFKCGS[βAla][βAla]RK(5FAM)-NH2; thioether N-12; C-terminus assumed) | 0.143 | 0.140 | 0.027 | 0.141 | promoted stable ATP occlusion | 8.19% | 88.51% |
| CC[C@H](C)[C@@H]1NC(=O)[C@H](Cc2c[nH]c3ccccc23)NC(=O)[C@H](CC(N)=O)NC(=O)[C@H](C)NC(=O)[C@H](CO)NC(=O)[C@@H]2CCCN2C(=O)[C@H](CC(=O)O)NC(=O)[C@@H](Cc2ccc(O)cc2)NC(=O)CSC[C@@H](C(=O)NCC(=O)N[C@@H](CO)C(=O)NCCC(=O)NCCC(=O)N[C@@H](CCCNC(=N)N)C(=O)N[C@@H](CCCCNC(=O)c2ccc3c(c2)C(=O)OC32c3ccc(O)cc3Oc3cc(O)ccc32)C(N)=O)NC(=O)[C@H]([C@@H](C)O)NC(=O)[C@H](CC(C)C)NC(=O)[C@H](CC(C)C)NC(=O)[C@H](C(C)C)NC(=O)[C@H](CC(C)C)NC1=O [CP13] ({CH2CO}-[dY]DPSANWILVLLTCGS[βAla][βAla]RK(5FAM)-NH2; thioether N-14; C-terminus assumed) | 0.122 | 0.123 | 0.025 | 0.127 | promoted stable ATP occlusion | 10.47% | 55.84% |
| CC[C@H](C)[C@@H]1NC(=O)[C@H]([C@@H](C)O)NC(=O)[C@H](CC(C)C)NC(=O)[C@H](Cc2c[nH]c3ccccc23)NC(=O)[C@H](Cc2ccccc2)NC(=O)[C@H](CC(N)=O)NC(=O)[C@H](CCC(=O)O)NC(=O)[C@H](CC(C)C)NC(=O)[C@H](CS)NC(=O)[C@H](Cc2c[nH]cn2)NC(=O)[C@H](CO)NC(=O)[C@@H](Cc2ccc(O)cc2)NC(=O)CSC[C@@H](C(=O)NCC(=O)N[C@@H](CO)C(=O)NCCC(=O)NCCC(=O)N[C@@H](CCCNC(=N)N)C(=O)N[C@@H](CCCCNC(=O)c2ccc3c(c2)C(=O)OC32c3ccc(O)cc3Oc3cc(O)ccc32)C(N)=O)NC(=O)[C@H](CC(C)C)NC1=O [CP6] ({CH2CO}-[dY]SHCLENFWLTILCGS[βAla][βAla]RK(5FAM)-NH2; thioether N-14) | 0.109 | 0.101 | 0.022 | 0.111 | nucleotide occlusion was completely abolished | 2.66% | 6.76% |
